Reference: the supplement of paper PMC11061612

Columns and labels:
Test in all cases: Bliss excess, mean over the matrix (fraction); higher = more synergy
[1] = tested on: DND-41 (T-Lymphoblastic Leukemia)
Method in brief: (§1)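 Bliss excess equals the observed combination effect minus the expected value EA + EB − EA·EB, where EA and EB are the effects of each agent alone. Combination Emax is the second-highest inhibition within the matrix. Inhibition was scaled from CellTiter-Glo 2.0 luminescence, with 0 set by vehicle wells and 1 by blank wells, after 72 hours of two-drug dosing of cells plated in 1536-well plates.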

WIL2-NS (Non-Cancerous) = tested on: WIL2-NS (Non-Cancerous)
Method in brief: as §1

[2] = tested on: L-540 (Hodgkin's Lymphoma)
Method in brief: as §1

[3] = tested on: NCI-H847 (Small Cell Lung Carcinoma)
Method in brief: as §1

[4] = tested on: KYSE-180 (Esophageal Squamous Cell Carcinoma)
Method in brief: as §1

[5] = tested on: NCI-H1792 (Lung Adenocarcinoma)
Method in brief: as §1

[6] = tested on: KM12 (Colorectal Carcinoma)
Method in brief: as §1

U251 (Low Grade Glioma) = tested on: U251 (Low Grade Glioma)
Method in brief: as §1

[7] = tested on: PANC-08-13 (Pancreatic Carcinoma)
Method in brief: as §1

CHP-212 (Neuroblastoma) = tested on: CHP-212 (Neuroblastoma)
Method in brief: as §1

[8] = tested on: SU-DHL-8 (B-Cell Non-Hodgkin's Lymphoma)
Method in brief: as §1

[9] = tested on: HDQ-P1 (Breast Carcinoma)
Method in brief: as §1

[10] = tested on: CAMA-1 (Breast Carcinoma)
Method in brief: as §1

[11] = tested on: TE-6 (Esophageal Squamous Cell Carcinoma)
Method in brief: as §1

[12] = tested on: K-562 (Chronic Myelogenous Leukemia)
Method in brief: as §1

ES1 (Ewing's Sarcoma) = tested on: ES1 (Ewing's Sarcoma)
Method in brief: as §1

[13] = tested on: MKN28 (Gastric Carcinoma)
Method in brief: as §1

TC-71 (Ewing's Sarcoma) = tested on: TC-71 (Ewing's Sarcoma)
Method in brief: as §1

[14] = tested on: MFM-223 (Breast Carcinoma)
Method in brief: as §1

[15] = tested on: BFTC-905 (Bladder Carcinoma)
Method in brief: as §1

Structure (SMILES)	Bliss excess [1]	Bliss excess (WIL2-NS (Non-Cancerous))	Bliss excess [2]	Bliss excess [3]	Bliss excess [4]	Bliss excess [5]	Bliss excess [6]	Bliss excess (U251 (Low Grade Glioma))	Bliss excess [7]	Bliss excess (CHP-212 (Neuroblastoma))	Bliss excess [8]	Bliss excess [9]	Bliss excess [10]	Bliss excess [11]	Bliss excess [12]	Bliss excess (ES1 (Ewing's Sarcoma))	Bliss excess [13]	Bliss excess (TC-71 (Ewing's Sarcoma))	Bliss excess [14]	Bliss excess [15]
CN(CCO)CC[C@H](CSc1ccccc1)Nc1ccc(S(=O)(=O)NC(=O)c2ccc(N3CCC([C@@H](O)c4ccccc4-c4ccc(Cl)cc4)CC3)cc2)cc1S(=O)(=O)C(F)(F)F [AZD4320] + Cc1cc2ncnn2cc1Nc1ncc2c(n1)n(C1CCOCC1)c(=O)n2C [AZD7648] (first compound max 1 µM, 7x7, partner max 10 µM)	-0.0011	-0.029	0.0389	0.0478	-0.0091	-0.024	-0.0234	-0.0405	-0.042	-0.0441	-0.0255	-0.0085	-0.0031	-0.0059	-0.0332	-0.0222	-0.036	-0.0201	-0.0229	-0.0375
CN(CCO)CC[C@H](CSc1ccccc1)Nc1ccc(S(=O)(=O)NC(=O)c2ccc(N3CCC([C@@H](O)c4ccccc4-c4ccc(Cl)cc4)CC3)cc2)cc1S(=O)(=O)C(F)(F)F [AZD4320] + Cn1cnc2c(F)c(Nc3ccc(Br)cc3Cl)c(C(=O)NOCCO)cc21 [Selumetinib] (first compound max 1 µM, 7x7, partner max 3 µM)	-0.0181	0.0074	-0.0184	0.0247	0.0148	0.0416	0.0423	-0.0087	0.0195	-0.0108	-0.102	0.0877	0.0043	-0.0277	0.0465	0.0147	0.0272	0.0614	-0.0146	-0.0411
Cc1c2c(nn1C)CSCc1cc(n(C)n1)CSc1cc(c3ccccc3c1)OCCCc1c(C(=O)O)n(C)c3c-2c(Cl)ccc13 [AZD5991] + C1CN(CCC1(C(=O)N[C@@H](CCO)C2=CC=C(C=C2)Cl)N)C3=NC=NC4=C3C=CN4 [Capivasertib] (first compound max 1 µM, 7x7, partner max 3 µM)	0.0038	-0.0169	0.0152	0.0714	0.0306	-0.019	0.0136	0.0231	-0.0235	-0.0066	-0.0225	0.0072	0.0993	-0.0177	0.0462	0.0708	-0.0198	0.0256	0.0005	0.0226
Cc1c2c(nn1C)CSCc1cc(n(C)n1)CSc1cc(c3ccccc3c1)OCCCc1c(C(=O)O)n(C)c3c-2c(Cl)ccc13 [AZD5991] + C=CCn1c(=O)c2cnc(Nc3ccc(N4CCN(C)CC4)cc3)nc2n1-c1cccc(C(C)(C)O)n1 [AZD1775] (first compound max 1 µM, partner max 1 µM)	-0.0375	0	-0.0127	-0.0445	0.0464	-0.0453	0.0031	0.0025	0.0156	-0.0508	-0.01	-0.0575	-0.0092	0.0135	0.0092	-0.0524	-0.0227	0.0478	-0.0611	-0.0212
Cc1c2c(nn1C)CSCc1cc(n(C)n1)CSc1cc(c3ccccc3c1)OCCCc1c(C(=O)O)n(C)c3c-2c(Cl)ccc13 [AZD5991] + CC1(C)CCC(CN2CCN(c3ccc(C(=O)NS(=O)(=O)c4ccc(NCC5CCOCC5)c([N+](=O)[O-])c4)c(Oc4cnc5[nH]ccc5c4)c3)CC2)=C(c2ccc(Cl)cc2)C1 [Venetoclax] (first compound max 1 µM, 7x7, partner max 1 µM)	0.044	-0.0302	0.0902	0.253	0.0103	0.0248	0.0015	-0.0068	-0.0411	-0.0416	0.0491	-0.0129	0.0985	-0.157	-0.003	0.0817	-0.0332	0.0733	-0.0041	-0.0016
Cc1c2c(nn1C)CSCc1cc(n(C)n1)CSc1cc(c3ccccc3c1)OCCCc1c(C(=O)O)n(C)c3c-2c(Cl)ccc13 [AZD5991] + CCN(CCO)CCCOc1ccc2c(Nc3cc(CC(=O)Nc4cccc(F)c4)[nH]n3)ncnc2c1 [AZD2811] (first compound max 1 µM, 7x7, partner max 1 µM)	0.0265	0.0821	0.0788	0.0011	0.102	0.016	0.058	0.098	0.0135	-0.0496	0.0416	-0.0283	0.0743	0.0482	0.086	0.0915	0.0839	-0.0244	0.0103	0.11
Cc1c2c(nn1C)CSCc1cc(n(C)n1)CSc1cc(c3ccccc3c1)OCCCc1c(C(=O)O)n(C)c3c-2c(Cl)ccc13 [AZD5991] + CN(C)CCCOc1ccc(-c2ccc3ncc4c(c3c2)n(C2CCOCC2)c(=O)n4C)cn1 [AZD0156] (first compound max 1 µM, 7x7, partner max 1 µM)	0.0195	-0.0099	-0.0021	-0.0131	0.0286	0.0004	-0.0453	0.0334	-0.0158	-0.0538	-0.0377	0.0104	0.002	-0.0167	0.0048	0.0092	0.0021	-0.001	-0.0038	0.0304
Cc1c2c(nn1C)CSCc1cc(n(C)n1)CSc1cc(c3ccccc3c1)OCCCc1c(C(=O)O)n(C)c3c-2c(Cl)ccc13 [AZD5991] + C[C@@H]1COCCN1C2=NC(=NC(=C2)C3(CC3)[S@](=N)(=O)C)C4=C5C=CNC5=NC=C4 [AZD6738] (first compound max 1 µM, 7x7, partner max 10 µM)	0.0215	-0.0025	0.0278	0.0145	0.0821	0.0332	0.0321	0.0572	0.0337	0.0122	0.0814	0.0563	0.0332	0.0298	-0.0091	0.0292	0.0118	0.0554	0.0601	0.0113
Cc1c2c(nn1C)CSCc1cc(n(C)n1)CSc1cc(c3ccccc3c1)OCCCc1c(C(=O)O)n(C)c3c-2c(Cl)ccc13 [AZD5991] + C[C@@H](Nc1cc(F)cc(F)c1)c1cc(C(=O)N(C)C)cc2c(=O)cc(N3CCOCC3)oc12 [AZD8186] (first compound max 1 µM, 7x7, partner max 3 µM)	-0.0249	-0.0749	-0.0224	0.0632	0.0187	-0.0108	0.0121	-0.0334	0.0187	-0.0203	-0.0961	-0.0209	0.0868	-0.0515	0.0096	0.013	-0.0326	0.0276	-0.047	-0.012
Cc1c2c(nn1C)CSCc1cc(n(C)n1)CSc1cc(c3ccccc3c1)OCCCc1c(C(=O)O)n(C)c3c-2c(Cl)ccc13 [AZD5991] + Cc1cc2ncnn2cc1Nc1ncc2c(n1)n(C1CCOCC1)c(=O)n2C [AZD7648] (first compound max 1 µM, 7x7, partner max 10 µM)	-0.0023	0.0039	-0.0036	0.0083	-0.0126	-0.0248	-0.0073	-0.0054	0.0012	0.0203	-0.0664	-0.0352	-0.0456	-0.0874	0.0044	-0.013	0.0046	-0.0745	-0.0361	-0.0282
Cc1c2c(nn1C)CSCc1cc(n(C)n1)CSc1cc(c3ccccc3c1)OCCCc1c(C(=O)O)n(C)c3c-2c(Cl)ccc13 [AZD5991] + Cn1cnc2c(F)c(Nc3ccc(Br)cc3Cl)c(C(=O)NOCCO)cc21 [Selumetinib] (first compound max 1 µM, 7x7, partner max 3 µM)	0.021	-0.0263	0.0007	0.042	0.0341	0.0347	-0.0063	-0.0024	0.0025	-0.0136	-0.074	0.0002	-0.035	0.0043	0.0393	0.0123	-0.0063	0.093	-0.0199	0.0136
C[C@@H]1COCCN1c1cc(C2([S@](C)(=N)=O)CC2)nc(-c2ccnc3[nH]ccc23)n1 [AZD6738] + O=C(c1cc(Cc2n[nH]c(=O)c3ccccc23)ccc1F)N1CCN(C(=O)C2CC2)CC1 [Olaparib] (first compound max 10 µM, 7x7, partner max 10 µM)	-0.0128	-0.0083	-0.022	-0.014	0.0762	0.0178	0.0138	0.056	0.0021	-0.0095	0.0343	0.0155	-0.0327	-0.0172	-0.0646	-0.0157	-0.001	-0.0726	0.0074	0.0156
Cc1cc2ncnn2cc1Nc1ncc2c(n1)n(C1CCOCC1)c(=O)n2C [AZD7648] + C=CCn1c(=O)c2cnc(Nc3ccc(N4CCN(C)CC4)cc3)nc2n1-c1cccc(C(C)(C)O)n1 [AZD1775] (first compound max 10 µM, partner max 1 µM)	-0.0109	-0.0038	0.0106	-0.0216	0.0302	-0.0274	-0.0388	-0.014	-0.0266	0.0249	-0.0079	-0.0805	-0.0068	-0.07	0.0017	0.0181	0.0495	0.055	-0.0357	0.022
Cc1cc2ncnn2cc1Nc1ncc2c(n1)n(C1CCOCC1)c(=O)n2C [AZD7648] + CCN(CCO)CCCOc1ccc2c(Nc3cc(CC(=O)Nc4cccc(F)c4)[nH]n3)ncnc2c1 [AZD2811] (first compound max 10 µM, 7x7, partner max 1 µM)	0.0308	0.0024	0.048	-0.0211	0.0029	0.0321	0.004	-0.0046	0.0006	-0.0162	0.038	-0.0154	-0.0677	0.0257	0.0127	0.0855	0.0124	-0.0301	0.0257	0.0469
